Consider 29 compounds from patent publication US9718821B2, “Pyridopyrimidinone inhibitors of kinases” (AbbVie Inc., priority 2012, dated 2017).

The assay has as its target T1, GST-tagged-Wee1 kinase (Homo sapiens, UniProt P30291).
T1 construct: purchased Carnabio 05-177
Nature of the assay: Wee1 time-resolved fluorescence equilibrium binding assay (displacement of Oregon Green-labeled ATP-competitive kinase probe). The settings on record: enzyme binding data; GST-tagged-Wee1 kinase 2 nM, fluorescent probe 300 nM, inhibitor 0.003 to 10 micromolar, 1 hour incubation; read-out: Wee-1 binding (Ki nM). How it is done:
Wee1 kinase was assayed using a time-resolved fluorescence equilibrium binding assay monitoring displacement of a rapidly reversible Oregon Green-labeled ATP-competitive kinase probe (N-(2-(2-(2-(4-(4-(5-chloro-4-(2-(1-hydroxycyclobutyl)thiazol-5-yl)-1H-pyrrolo[2,3-b]pyridin-2-yl)phenyl)piperazin-1-yl)ethoxy)ethoxy)ethyl)-2′,7′-difluoro-3′,6′-dihydroxy-3-oxo-3H-spiro[isobenzofuran-1,9′-xanthene]-5-carboxamide) by competitive Wee1 inhibitors.
Table 1 depicts enzyme binding data (Ki)for exemplary compounds.

T1 sequence (P30291 whole entry): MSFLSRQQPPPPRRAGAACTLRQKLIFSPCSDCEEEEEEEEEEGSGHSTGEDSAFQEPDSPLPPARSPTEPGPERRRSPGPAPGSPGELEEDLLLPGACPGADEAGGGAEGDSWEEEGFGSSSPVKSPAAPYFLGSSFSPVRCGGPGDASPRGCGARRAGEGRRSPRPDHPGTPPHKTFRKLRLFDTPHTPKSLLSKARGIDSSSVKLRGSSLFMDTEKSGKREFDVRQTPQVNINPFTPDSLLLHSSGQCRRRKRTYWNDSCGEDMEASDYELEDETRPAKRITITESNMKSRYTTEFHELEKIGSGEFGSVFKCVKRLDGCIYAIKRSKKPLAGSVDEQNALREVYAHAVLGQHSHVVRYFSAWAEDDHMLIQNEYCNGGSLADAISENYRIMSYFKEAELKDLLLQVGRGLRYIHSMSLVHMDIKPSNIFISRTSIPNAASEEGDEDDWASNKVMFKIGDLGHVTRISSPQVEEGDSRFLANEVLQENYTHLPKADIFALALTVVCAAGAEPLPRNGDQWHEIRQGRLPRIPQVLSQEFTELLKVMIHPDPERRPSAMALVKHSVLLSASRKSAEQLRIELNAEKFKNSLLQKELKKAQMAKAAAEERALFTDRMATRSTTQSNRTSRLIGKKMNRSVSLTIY

Regarding `Cc1cn(-c2c(Cl)cccc2Cl)c(=O)c2cnc(Nc3ccc(C4CCN(C)CC4)cc3)nc12` [Example 78, 6-(2,6-dichlorophenyl)-8-methyl-2-{[4-(1-methylpiperidin-4-yl)phenyl]amino}pyrido[4,3-d]pyrimidin-5(6H)-one], the Ki was found to be 0.2 nM.

In the case of `Cc1cn(-c2c(Cl)cccc2Cl)c(=O)c2cnc(Nc3ccc4c(c3)CN(C)CC4(C)C)nc12` [Example 79, 6-(2,6-dichlorophenyl)-8-methyl-2-[(2,4,4-trimethyl-1,2,3,4-tetrahydroisoquinolin-7-yl)amino]pyrido[4,3-d]pyrimidin-5(6H)-one], the Ki worked out at 0.4 nM.

Regarding `Cc1cn(-c2c(Cl)cccc2Cl)c(=O)c2cnc(Nc3ccc4c(c3)CNCC4)nc12` [Example 80, 6-(2,6-dichlorophenyl)-8-methyl-2-(1,2,3,4-tetrahydroisoquinolin-7-ylamino)pyrido[4,3-d]pyrimidin-5(6H)-one], the Ki stood at 0.5 nM.

For the compound `O=c1c2cnc(Nc3ccc4c(c3)CCNC4)nc2c(-c2ncc[nH]2)cn1-c1c(Cl)cccc1Cl` [Example 81, 6-(2,6-dichlorophenyl)-8-(1H-imidazol-2-yl)-2-(1,2,3,4-tetrahydroisoquinolin-6-ylamino)pyrido[4,3-d]pyrimidin-5(6H)-one], the Ki stood at 0.4 nM.

Consider `CN1CCC(c2ccc(Nc3ncc4c(=O)n(-c5c(Cl)cccc5Cl)cc(C(F)F)c4n3)cc2)CC1` [Example 82, 6-(2,6-dichlorophenyl)-8-(difluoromethyl)-2-{[4-(1-methylpiperidin-4-yl)phenyl]amino}pyrido[4,3-d]pyrimidin-5 (6H)-one], for which the Ki stood at 0.1 nM.

With `CN(C)C1Cc2ccc(Nc3ncc4c(=O)n(-c5c(Cl)cccc5Cl)cc(C(F)F)c4n3)cc2C1` (centres unmarked) [Example 83, 6-(2,6-dichlorophenyl)-8-(difluoromethyl)-2-{[2-(dimethylamino)-2,3-dihydro-1H-inden-5-yl]amino}pyrido[4,3-d]pyrimidin-5(6H)-one], the Ki was 0.2 nM.

Consider `CN(C)C1CCN(c2ccc(Nc3ncc4c(=O)n(-c5c(Cl)cccc5Cl)cc(C(F)F)c4n3)cc2)CC1` [Example 84, 6-(2,6-dichlorophenyl)-8-(difluoromethyl)-2-({4-[4-(dimethylamino)piperidin-1-yl]phenyl}amino)pyrido[4,3-d]pyrimidin-5(6H)-one], for which the Ki is 0.328 nM.

In the case of `CC1(C)CNCc2cc(Nc3ncc4c(=O)n(-c5c(Cl)cccc5Cl)cc(C(F)F)c4n3)ccc21` [Example 85, 6-(2,6-dichlorophenyl)-8-(difluoromethyl)-2-[(4,4-dimethyl-1,2,3,4-tetrahydroisoquinolin-7-yl)amino]pyrido[4,3-d]pyrimidin-5(6H)-one], the Ki is 0.265 nM.

`O=c1c2cnc(Nc3ccc4c(c3)CNCC43CC3)nc2c(C(F)F)cn1-c1c(Cl)cccc1Cl` [Example 86, 6-(2,6-dichlorophenyl)-8-(difluoromethyl)-2-(2′,3′-dihydro-1′H-spiro[cyclopropane-1,4′-isoquinolin]-7′-ylamino)pyrido[4,3-d]pyrimidin-5(6H)-one]: the Ki is 0.305 nM.

Consider `O=c1c2cnc(Nc3ccc4c(c3)CNCC4)nc2c(C(F)F)cn1-c1c(Cl)cccc1Cl` [Example 87, 6-(2,6-dichlorophenyl)-8-(difluoromethyl)-2-(1,2,3,4-tetrahydroisoquinolin-7-ylamino)pyrido[4,3-d]pyrimidin-5(6H)-one], for which the Ki turned out to be 0.254 nM.

With `Cc1cccc(C)c1-n1cc(C)c2nc(Nc3ccc4c(c3)CN(C)CC43CC3)ncc2c1=O` [Example 88, 6-(2,6-dimethylphenyl)-8-methyl-2-[(2′-methyl-2′,3′-dihydro-1′H-spiro[cyclopropane-1,4′-isoquinolin]-7′-yl)amino]pyrido[4,3-d]pyrimidin-5(6H)-one], the Ki is 0.544 nM.

`Cc1cccc(C)c1-n1cc(C)c2nc(Nc3ccc(N4CCC(N(C)C)CC4)cc3)ncc2c1=O` [Example 89, 2-({4-[4-(dimethylamino)piperidin-1-yl]phenyl}amino)-6-(2,6-dimethylphenyl)-8-methylpyrido[4,3-d]pyrimidin-5(6H)-one]: the Ki was 0.897 nM.

`Cc1cccc(Cl)c1-n1cc(C)c2nc(Nc3ccc4c(c3)CN(C)CC43CC3)ncc2c1=O` [Example 90, 6-(2-chloro-6-methylphenyl)-8-methyl-2-[(2′-methyl-2′,3′-dihydro-1′H-spiro[cyclopropane-1,4′-isoquinolin]-7′-yl)amino]pyrido[4,3-d]pyrimidin-5(6H)-one]: the Ki was found to be 0.193 nM.

On to `Cc1cccc(Cl)c1-n1cc(C)c2nc(Nc3ccc(N4CCC(N(C)C)CC4)cc3)ncc2c1=O` [Example 91, 6-(2-chloro-6-methylphenyl)-2-({4-[4-(dimethylamino)piperidin-1-yl]phenyl}amino)-8-methylpyrido[4,3-d]pyrimidin-5(6H)-one], for which the Ki is 0.22 nM.

On to `Cc1cn(-c2c(Cl)cccc2Cl)c(=O)c2cnc(Nc3ccc(SCCN(C)C)cc3)nc12` [Example 92, 6-(2,6-dichlorophenyl)-2-[(4-{[2-(dimethylamino)ethyl]sulfanyl}phenyl)amino]-8-methylpyrido[4,3-d]pyrimidin-5(6H)-one], for which the Ki came out at 0.378 nM.

Consider `O=c1c2cnc(Nc3ccc4c(c3)CCNC4)nc2c(C(F)F)cn1-c1c(Cl)cccc1Cl` [Example 93, 6-(2,6-dichlorophenyl)-8-(difluoromethyl)-2-(1,2,3,4-tetrahydroisoquinolin-6-ylamino)pyrido[4,3-d]pyrimidin-5(6H)-one], for which the Ki is 0.358 nM.

As for `CN1Cc2cc(Nc3ncc4c(=O)n(-c5c(Cl)cccc5Cl)cc(C(F)F)c4n3)ccc2C2(CC2)C1` [Example 94, 6-(2,6-dichlorophenyl)-8-(difluoromethyl)-2-[(2′-methyl-2′,3′-dihydro-1′H-spiro[cyclopropane-1,4′-isoquinolin]-7′-yl)amino]pyrido[4,3-d]pyrimidin-5(6H)-one], the Ki was determined as 0.568 nM.

Consider `O=c1c2cnc(Nc3ccc4c(c3)CC(N3CCCC3)C4)nc2c(C(F)F)cn1-c1c(Cl)cccc1Cl` (centres unmarked) [Example 95, 6-(2,6-dichlorophenyl)-8-(difluoromethyl)-2-{[2-(pyrrolidin-1-yl)-2,3-dihydro-1H-inden-5-yl]amino}pyrido[4,3-d]pyrimidin-5(6H)-one], for which the Ki was found to be 0.38 nM.

In the case of `Cc1cn(-c2c(Cl)cccc2Cl)c(=O)c2cnc(Nc3ccc(S(=O)(=O)CCN(C)C)cc3)nc12` [Example 96, 6-(2,6-dichlorophenyl)-2-[(4-{[2-(dimethylamino)ethyl]sulfonyl}phenyl)amino]-8-methylpyrido[4,3-d]pyrimidin-5(6H)-one], the Ki is 1.8 nM.

As for `Cc1cn(-c2cccc3cccnc23)c(=O)c2cnc(Nc3ccc4c(c3)CN(C)CC43CC3)nc12` [Example 97, 8-methyl-2-[(2′-methyl-2′,3′-dihydro-1′H-spiro[cyclopropane-1,4′-isoquinolin]-7′-yl)amino]-6-(quinolin-8-yl)pyrido[4,3-d]pyrimidin-5(6H)-one], the Ki came out at 28.2 nM.

`Cc1cn(-c2ccccc2Cl)c(=O)c2cnc(Nc3ccc4c(c3)CNCC4)nc12` [Example 98, 6-(2-chlorophenyl)-8-methyl-2-(1,2,3,4-tetrahydroisoquinolin-7-ylamino)pyrido[4,3-d]pyrimidin-5(6H)-one]: the Ki came to 0.5 nM.

As to `Cc1cn(-c2ccccc2Cl)c(=O)c2cnc(Nc3ccc(N4CCC(N(C)C)CC4)cc3)nc12` [Example 99, 6-(2-chlorophenyl)-2-({4-[4-(dimethylamino)piperidin-1-yl]phenyl}amino)-8-methylpyrido[4,3-d]pyrimidin-5(6H)-one], the Ki was 0.9 nM.

As to `Cc1cn(-c2cccc3ccccc23)c(=O)c2cnc(Nc3ccc4c(c3)CNCC4)nc12` [Example 100, 8-methyl-6-(naphthalen-1-yl)-2-(1,2,3,4-tetrahydroisoquinolin-7-ylamino)pyrido[4,3-d]pyrimidin-5(6H)-one], the Ki is 4.3 nM.

Consider `Cc1cn(-c2cccc3ccccc23)c(=O)c2cnc(Nc3ccc(N4CCC(N(C)C)CC4)cc3)nc12` [Example 101, 2-({4-[4-(dimethylamino)piperidin-1-yl]phenyl}amino)-8-methyl-6-(naphthalen-1-yl)pyrido[4,3-d]pyrimidin-5(6H)-one], for which the Ki was found to be 2.8 nM.

`Cc1cn(-c2cc(Cl)ccc2Cl)c(=O)c2cnc(Nc3ccc4c(c3)CNCC4)nc12` [Example 102, 6-(2,5-dichlorophenyl)-8-methyl-2-(1,2,3,4-tetrahydroisoquinolin-7-ylamino)pyrido[4,3-d]pyrimidin-5(6H)-one]: the Ki stood at 17.8 nM.

For the compound `Cc1cccc(F)c1-n1cc(C)c2nc(Nc3ccc4c(c3)CNCC4)ncc2c1=O` [Example 103, 6-(2-fluoro-6-methylphenyl)-8-methyl-2-(1,2,3,4-tetrahydroisoquinolin-7-ylamino)pyrido[4,3-d]pyrimidin-5(6H)-one], the Ki worked out at 0.9 nM.

On to `Cc1cccc(F)c1-n1cc(C)c2nc(Nc3ccc(N4CCC(N(C)C)CC4)cc3)ncc2c1=O` [Example 104, 2-({4-[4-(dimethylamino)piperidin-1-yl]phenyl}amino)-6-(2-fluoro-6-methylphenyl)-8-methylpyrido[4,3-d]pyrimidin-5(6H)-one], for which the Ki stood at 0.9 nM.

Take `Cc1cn(-c2ccccc2-c2cnco2)c(=O)c2cnc(Nc3ccc4c(c3)CNCC4)nc12` [Example 105, 8-methyl-6-[2-(1,3-oxazol-5-yl)phenyl]-2-(1,2,3,4-tetrahydroisoquinolin-7-ylamino)pyrido[4,3-d]pyrimidin-5(6H)-one]: the Ki was 122 nM.

As to `Cc1cn(-c2ccccc2-c2cnco2)c(=O)c2cnc(Nc3ccc(N4CCC(N(C)C)CC4)cc3)nc12` [Example 106, 2-({4-[4-(dimethylamino)piperidin-1-yl]phenyl}amino)-8-methyl-6-[2-(1,3-oxazol-5-yl)phenyl]pyrido[4,3-d]pyrimidin-5(6H)-one], the Ki was determined as 115 nM.
